Activity calls are given as the source filed them.
Columns and labels:
[1] = target: Casein kinase II subunit alpha (Homo sapiens, UniProt P68400); experiment: Inhibition of CSNK2A1(unknown origin) using Ser/Thr 11 as substrate incubated for 60 mins in presence of ATP by Z'-LYTE assay
[2] = target: Homeodomain-interacting protein kinase 2 (Homo sapiens, UniProt Q9H2X6); experiment: Inhibition of HIPK2 (unknown origin) using Ser/Thr 09 as substrate incubated for 60 mins in presence of ATP by Z'-Lyte assay
NCI-H2052 = experiment: Cytotoxicity against human H2052 cells assessed as reduction in cell viability and measured after 7 days by Celltiter-glo luminescent cell viability assay; type: functional, cell-based; conditions: NCI-H2052, 168 h
MOLM-14 [3] = experiment: Down regulation of phosphorylated-STAT5 level in human MOLM-14 cells at 0.03 to 3 uM after 24 hrs by Western blotting analysis; type: functional, cell-based; conditions: dose 0.03-3 µM
MV4-11 [4] = experiment: Antitumor activity against human MV-4-11 cells xenografted in NCr nu/nu mouse assessed as tumor growth inhibition at 50 mg/kg, po administered twice a day for 21 days and measured for every 3 days; type: functional, organism-based; conditions: time 21.0 day
MV4-11 [5] = experiment: Down regulation of phosphorylated-STAT5 level in human MV-4-11 cells after 48 hrs by Western blotting analysis; type: functional, cell-based; conditions: dose 0.03-3 µM
MV4-11 [6] = experiment: Down regulation of phosphorylated-STAT1 level in human MV-4-11 cells after 24 hrs by Western blotting analysis; type: functional, cell-based; conditions: dose 0.03-10 µM
OE33 = experiment: Cytotoxicity against human OE33 cells assessed as reduction in cell viability measured after 7 days by Celltiter-glo luminescent cell viability assay; type: functional, cell-based; conditions: OE33, 168 h
MOLM-14 [7] = experiment: Down regulation of phosphorylated-STAT3 level in human MOLM-14 cells at 0.03 to 3 uM after 24 hrs by Western blotting analysis; type: functional, cell-based; conditions: dose 0.03-3 µM
COLO 205 = experiment: Cytotoxicity against human COLO-205 cells assessed as reduction in cell viability measured after 7 days by Celltiter-glo luminescent cell viability assay; type: functional, cell-based; conditions: COLO 205, 168 h
MOLM-14 [8] = experiment: Down regulation of phosphorylated-STAT5 level in human MOLM-14 cells at 0.03 to 3 uM after 48 hrs by Western blotting analysis; type: functional, cell-based; conditions: dose 0.03-3 µM
CDK8/Cyclin C = CDK8/Cyclin C (Homo sapiens, UniProt P49336); experiment: Inhibition of kinase tracer 236 binding to His-tagged CDK8/cyclin C (unknown origin) incubated for 60 mins by LanthaScreen Eu-Kinase binding assay; type: protein-complex assay
[9] = Cytotoxicity against human CLL-119 cells assessed as reduction in cell viability measured after 7 days by Celltiter-glo luminescent cell viability assay; type: functional, cell-based; conditions: CLL-119, 168 h
HCT-116 = experiment: Cytotoxicity against human HCT-116 cells assessed as reduction in cell viability measured after 7 days by Celltiter-glo luminescent cell viability assay; type: functional, cell-based; conditions: HCT-116, 168 h
MV4-11 [10] = experiment: Down regulation of phosphorylated-STAT1 level in human MV-4-11 cells after 48 hrs by Western blotting analysis; type: functional, cell-based; conditions: dose 0.03-3 µM
MOLM-14 [11] = experiment: Down regulation of phosphorylated-STAT1 level in human MOLM-14 cells at 0.03 to 3 uM after 24 hrs by Western blotting analysis; type: functional, cell-based; conditions: dose 0.03-3 µM
MOLM-14 [12] = experiment: Down regulation of phosphorylated-STAT1 level in human MOLM-14 cells at 0.03 to 3 uM after 48 hrs by Western blotting analysis; type: functional, cell-based; conditions: dose 0.03-3 µM
MV4-11 [13] = experiment: Down regulation of MCL-1 level in human MV-4-11 cells at 0.03 to 3 uM after 48 hrs by Western blotting analysis; type: functional, cell-based; conditions: dose 0.03-3 µM
SET-2 = experiment: Cytotoxicity against human SET2 cells assessed as reduction in cell viability measured after 7 days by Celltiter-glo luminescent cell viability assay; type: functional, cell-based; conditions: SET-2, 168 h
MV4-11 [14] = experiment: Down regulation of YAP level in human MV-4-11 cells at 0.03 to 3 uM after 48 hrs by Western blotting analysis; type: functional, cell-based; conditions: dose 0.03-3 µM
BT-474 = experiment: Cytotoxicity against human BT474 cells assessed as reduction in cell viability and measured after 7 days by Celltiter-glo luminescent cell viability assay; type: functional, cell-based; conditions: BT-474, 168 h
MV4-11 [15] = experiment: Down regulation of phosphorylated-STAT5 level in human MV-4-11 cells after 24 hrs by Western blotting analysis; type: functional, cell-based; conditions: dose 0.03-10 µM
[16] = Cytotoxicity against human H2030-Brm3 cells assessed as reduction in cell viability measured after 7 days by Celltiter-glo luminescent cell viability assay; type: functional, cell-based; conditions: H2030-BrM3, 168 h
Huh-7 = experiment: Cytotoxicity against human Huh-7 cells assessed as reduction in cell viability and measured after 7 days by Celltiter-glo luminescent cell viability assay; type: functional, cell-based; conditions: Huh-7, 168 h
[17] = target: Cyclin-dependent kinase 19 (Homo sapiens, UniProt Q9BWU1); experiment: Inhibition of kinase tracer 236 binding to GST-tagged CDK19 (unknown origin) incubated for 60 mins by LanthaScreen Eu-Kinase binding assay
SW-620 [18] = experiment: Cytotoxicity against human SW620 cells assessed as reduction in cell viability measured after 7 days by Celltiter-glo luminescent cell viability assay; type: functional, cell-based; conditions: SW-620, 168 h
MCF7 = experiment: Cytotoxicity against human MCF7 cells assessed as reduction in cell viability and measured after 7 days by Celltiter-glo luminescent cell viability assay; type: functional, cell-based; conditions: MCF7, 168 h
MV4-11 [19] = experiment: Down regulation of phosphorylated-STAT3 level in human MV-4-11 cells after 48 hrs by Western blotting analysis; type: functional, cell-based; conditions: dose 0.03-3 µM
MOLM-14 [20] = experiment: Down regulation of phosphorylated-STAT3 level in human MOLM-14 cells at 0.03 to 3 uM after 48 hrs by Western blotting analysis; type: functional, cell-based; conditions: dose 0.03-3 µM
[21] = Toxicity in Ncr nu/nu mouse xenografted with human MV-4-11 cells assessed as effect on body weight at 50 mg/kg, po administered twice a day for 21 days and measured for every 3 days; type: organism-based; conditions: in vivo, 504 h, time 21 day
SW-620 [22] = experiment: Cytotoxicity against human SW620 cells assessed as reduction in cell viability measured after 7 days in presence of glycolysis inhibitor 2-DG by Celltiter-glo luminescent cell viability assay; type: functional, cell-based; conditions: SW-620, 168 h
MV4-11 [23] = experiment: Cytotoxicity against human MV-4-11 cells assessed as reduction in cell viability measured after 7 days by Celltiter-glo luminescent cell viability assay; type: functional, cell-based; conditions: MV4-11, 168 h
MOLM-14 [24] = experiment: Down regulation of phosphorylated-STAT1 level in mouse xenografted with human MOLM-14 cells at 50 mg/kg, po administered twice a day for 21 days by Western blotting analysis; type: functional, organism-based; conditions: time 21.0 day
RS4-11 = experiment: Cytotoxicity against human RS4-11 cells assessed as reduction in cell viability measured after 7 days by Celltiter-glo luminescent cell viability assay; type: functional, cell-based; conditions: RS4-11, 168 h
HeLa = experiment: Cytotoxicity against human HeLa cells assessed as reduction in cell viability measured after 7 days by Celltiter-glo luminescent cell viability assay; type: functional, cell-based; conditions: 168 h
MV4-11 [25] = experiment: Down regulation of C-MYC level in human MV-4-11 cells at 0.03 to 3 uM after 48 hrs by Western blotting analysis; type: functional, cell-based; conditions: dose 0.03-3 µM
MV4-11 [26] = experiment: Down regulation of CTGF level in human MV-4-11 cells at 0.03 to 3 uM after 48 hrs by Western blotting analysis; type: functional, cell-based; conditions: dose 0.03-3 µM
MV4-11 [27] = experiment: Down regulation of CYR61 level in human MV-4-11 cells at 0.03 to 3 uM after 48 hrs by Western blotting analysis; type: functional, cell-based; conditions: dose 0.03-3 µM
[28] = Toxicity in athymic nude mouse xenografted with human MOLM-14 cells assessed as effect on body weight at 50 mg/kg, po administered twice a day with 5 days on and 2 days off dosing schedule for 21 days and measured for every other day; type: organism-based; conditions: in vivo, 504 h, time 3 weeks
A204 = experiment: Cytotoxicity against human A204 cells assessed as reduction in cell viability and measured after 7 days by Celltiter-glo luminescent cell viability assay; type: functional, cell-based; conditions: A204, 168 h
MOLM-14 [29] = experiment: Down regulation of phosphorylated-STAT1 level in mouse xenografted with human MOLM-14 cells by Western blotting analysis; type: functional, cell-based; conditions: dose 10-100 mg/kg
[30] = Cytotoxicity against human TG-1 cells assessed as reduction in cell viability measured after 7 days by Celltiter-glo luminescent cell viability assay; type: functional, cell-based; conditions: TG1, 168 h
U-251 = experiment: Cytotoxicity against human U251 cells assessed as reduction in cell viability and measured after 7 days by Celltiter-glo luminescent cell viability assay; type: functional, cell-based; conditions: U-251, 168 h
MV4-11 [31] = experiment: Down regulation of phosphorylated-STAT3 level in human MV-4-11 cells after 24 hrs by Western blotting analysis; type: functional, cell-based; conditions: dose 0.03-10 µM
MOLM-14 [32] = experiment: Down regulation of phosphorylated-STAT5 level in mouse xenografted with human MOLM-14 cells at 50 mg/kg, po administered twice a day for 21 days by Western blotting analysis; type: functional, organism-based; conditions: time 21.0 day
MOLM-14 [33] = experiment: Antitumor activity against human MOLM-14 cells xenografted in athymic nude mouse assessed as tumor growth inhibition at 50 mg/kg, po administered twice a day with 5 days on and 2 days off dosing schedule for 3 weeks and measured every other day; type: functional, organism-based
MSTO-211H = experiment: Cytotoxicity against human MSTO-211H cells assessed as reduction in cell viability and measured after 7 days by Celltiter-glo luminescent cell viability assay; type: functional, cell-based; conditions: 168 h
[34] = Cytotoxicity against human H290 cells assessed as reduction in cell viability and measured after 7 days by Celltiter-glo luminescent cell viability assay; type: functional, cell-based; conditions: NCI-H290, 168 h
COLO357 = experiment: Cytotoxicity against human COLO-357 cells assessed as reduction in cell viability and measured after 7 days by Celltiter-glo luminescent cell viability assay; type: functional, cell-based; conditions: COLO357, 168 h
MOLM-14 [35] = experiment: Cytotoxicity against human MOLM-14 cells assessed as reduction in cell viability measured after 7 days by Celltiter-glo luminescent cell viability assay; type: functional, cell-based; conditions: MOLM-14, 168 h
[36] = Cytotoxicity against human A549-Brm3 cells assessed as reduction in cell viability measured after 7 days by Celltiter-glo luminescent cell viability assay; type: functional, cell-based; conditions: A549-BrM3, 168 h
A549 = experiment: Cytotoxicity against human A549 cells assessed as reduction in cell viability measured after 7 days by Celltiter-glo luminescent cell viability assay; type: functional, cell-based; conditions: A549, 168 h

Homeodomain-interacting protein kinase 2, sequence (Q9H2X6 whole entry): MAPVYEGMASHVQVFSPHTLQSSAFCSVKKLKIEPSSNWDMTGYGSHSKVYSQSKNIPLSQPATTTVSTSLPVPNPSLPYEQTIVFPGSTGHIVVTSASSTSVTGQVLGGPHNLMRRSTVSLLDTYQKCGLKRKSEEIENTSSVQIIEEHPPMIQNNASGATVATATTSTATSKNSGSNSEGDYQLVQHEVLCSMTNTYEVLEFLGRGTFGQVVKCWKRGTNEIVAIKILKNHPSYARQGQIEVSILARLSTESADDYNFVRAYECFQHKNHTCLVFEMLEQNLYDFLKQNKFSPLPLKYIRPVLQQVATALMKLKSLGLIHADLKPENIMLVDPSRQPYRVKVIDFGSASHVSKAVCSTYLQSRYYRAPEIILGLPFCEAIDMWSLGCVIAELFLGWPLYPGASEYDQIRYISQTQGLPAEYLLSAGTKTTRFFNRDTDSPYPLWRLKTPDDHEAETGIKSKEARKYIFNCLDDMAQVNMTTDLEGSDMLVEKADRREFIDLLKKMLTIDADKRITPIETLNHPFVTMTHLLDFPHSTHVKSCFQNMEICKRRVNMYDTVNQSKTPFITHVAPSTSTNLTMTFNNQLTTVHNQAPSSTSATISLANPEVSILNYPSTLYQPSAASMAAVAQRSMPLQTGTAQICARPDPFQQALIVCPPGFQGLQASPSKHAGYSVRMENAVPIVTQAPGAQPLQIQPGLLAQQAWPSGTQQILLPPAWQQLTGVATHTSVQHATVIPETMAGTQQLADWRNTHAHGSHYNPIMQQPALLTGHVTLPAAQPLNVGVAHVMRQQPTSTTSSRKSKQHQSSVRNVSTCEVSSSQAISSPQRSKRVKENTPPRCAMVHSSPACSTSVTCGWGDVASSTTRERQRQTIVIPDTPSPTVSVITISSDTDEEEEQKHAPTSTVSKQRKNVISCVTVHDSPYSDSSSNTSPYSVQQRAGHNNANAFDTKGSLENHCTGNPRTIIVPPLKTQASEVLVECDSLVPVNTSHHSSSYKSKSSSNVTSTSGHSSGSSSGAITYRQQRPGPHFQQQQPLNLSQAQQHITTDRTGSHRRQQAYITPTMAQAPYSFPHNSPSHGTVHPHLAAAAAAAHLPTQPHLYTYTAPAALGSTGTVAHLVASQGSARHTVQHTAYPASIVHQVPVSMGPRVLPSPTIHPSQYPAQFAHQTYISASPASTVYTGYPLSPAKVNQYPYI
Casein kinase II subunit alpha, sequence (P68400 whole entry): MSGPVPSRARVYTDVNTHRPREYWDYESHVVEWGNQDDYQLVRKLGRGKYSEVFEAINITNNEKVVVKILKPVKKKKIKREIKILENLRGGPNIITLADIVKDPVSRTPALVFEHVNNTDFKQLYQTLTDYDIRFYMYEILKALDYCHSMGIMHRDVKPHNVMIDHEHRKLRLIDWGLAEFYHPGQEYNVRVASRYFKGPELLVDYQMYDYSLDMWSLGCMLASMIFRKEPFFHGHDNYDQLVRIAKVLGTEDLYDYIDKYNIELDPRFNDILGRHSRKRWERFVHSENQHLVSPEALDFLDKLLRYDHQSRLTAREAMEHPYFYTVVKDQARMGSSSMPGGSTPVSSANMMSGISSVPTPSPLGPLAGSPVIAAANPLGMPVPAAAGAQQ
Cyclin-dependent kinase 19, sequence (Q9BWU1 whole entry): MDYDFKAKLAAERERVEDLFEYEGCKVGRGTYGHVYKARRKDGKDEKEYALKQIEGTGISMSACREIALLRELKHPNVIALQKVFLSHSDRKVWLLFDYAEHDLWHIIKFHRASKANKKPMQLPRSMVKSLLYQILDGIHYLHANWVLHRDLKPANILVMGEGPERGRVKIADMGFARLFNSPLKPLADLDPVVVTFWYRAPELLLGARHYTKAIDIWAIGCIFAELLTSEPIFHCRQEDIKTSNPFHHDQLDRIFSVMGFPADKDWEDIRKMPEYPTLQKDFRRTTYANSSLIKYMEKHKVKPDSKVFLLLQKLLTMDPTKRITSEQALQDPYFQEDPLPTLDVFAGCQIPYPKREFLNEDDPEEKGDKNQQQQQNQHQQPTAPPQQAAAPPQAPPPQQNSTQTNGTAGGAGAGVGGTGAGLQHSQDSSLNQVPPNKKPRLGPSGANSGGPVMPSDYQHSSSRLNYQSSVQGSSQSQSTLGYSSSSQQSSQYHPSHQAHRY
CDK8/Cyclin C, sequence (P49336 whole entry): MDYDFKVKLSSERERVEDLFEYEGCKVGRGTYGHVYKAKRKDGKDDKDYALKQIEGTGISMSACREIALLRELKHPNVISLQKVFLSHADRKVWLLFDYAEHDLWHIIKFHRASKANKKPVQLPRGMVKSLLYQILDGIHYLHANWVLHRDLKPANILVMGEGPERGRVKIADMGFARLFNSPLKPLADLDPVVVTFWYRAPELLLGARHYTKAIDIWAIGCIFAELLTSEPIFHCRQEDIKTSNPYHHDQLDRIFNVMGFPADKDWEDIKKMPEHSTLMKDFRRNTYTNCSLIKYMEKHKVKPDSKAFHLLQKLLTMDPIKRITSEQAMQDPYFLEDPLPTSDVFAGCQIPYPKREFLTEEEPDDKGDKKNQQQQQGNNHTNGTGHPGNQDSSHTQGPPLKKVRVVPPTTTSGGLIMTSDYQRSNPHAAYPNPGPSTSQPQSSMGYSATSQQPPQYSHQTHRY
CDK8/Cyclin C, sequence (P24863 whole entry, further chain): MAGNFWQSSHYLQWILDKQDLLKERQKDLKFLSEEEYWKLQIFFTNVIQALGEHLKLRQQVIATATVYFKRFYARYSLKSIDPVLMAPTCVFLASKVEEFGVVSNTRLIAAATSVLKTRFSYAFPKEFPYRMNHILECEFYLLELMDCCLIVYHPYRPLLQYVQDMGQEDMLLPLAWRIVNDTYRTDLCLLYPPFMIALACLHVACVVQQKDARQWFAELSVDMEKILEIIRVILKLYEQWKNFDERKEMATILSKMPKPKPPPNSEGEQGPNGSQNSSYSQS

Nc1ccc(-c2cc3cc(C(=O)O)ccc3c3cnccc23)cn1
< 300 nM: IC50 [1]

O=C(O)c1ccc2c(c1)cc(-c1ccncc1)c1ccncc12
< 300 nM: IC50 [1]

O=C(O)c1ccc2c(c1)cc(Nc1ccc(Cl)cc1)c1ccncc12
< 300 nM: IC50 [1]

O=C(O)c1ccc2c(c1)cc(NC1CC1)c1ccncc12
< 300 nM: IC50 [2] | IC50 [1]

O=C(O)c1ccc2c(c1)cc(NC1CCC1)c1ccncc12
< 300 nM: IC50 [1]

CC[C@@H](C)Nc1cc2cc(C(=O)O)ccc2c2cnccc12
< 300 nM: IC50 [2] | IC50 [1]

CCC(C)Nc1cc2cc(C(=O)O)ccc2c2cnccc12 (configuration not stated)
< 300 nM: IC50 [1]

O=C(O)c1ccc2c(c1)cc(Br)c1ccnc(Cl)c12
< 300 nM: IC50 [1]

O=C(O)c1ccc2c(c1)cc(C1CC1)c1ccncc12
< 300 nM: IC50 [1]

CC[C@H](C)Nc1cc2cc(C(=O)O)ccc2c2cnccc12
< 300 nM: IC50 [1]

O=C(O)c1ccc2c(c1)cc(-c1cc[nH]n1)c1ccncc12
< 300 nM: IC50 [1]

O=C(O)c1ccc2c(c1)cc(NC1CCCC1)c1ccncc12
< 300 nM: IC50 [1]

Nc1nccc2c(Br)cc3cc(C(=O)[O-])ccc3c12.[Na+]
< 300 nM: IC50 (CDK8/Cyclin C) | IC50 [17] | IC50 [2] | IC50 [1]
1000 nM: IC50 (NCI-H2052) | IC50 (HCT-116) | IC50 (BT-474) | IC50 (SW-620 [18]) | IC50 (MCF7) | IC50 (HeLa) | IC50 (A204) | IC50 (U-251) | IC50 (MSTO-211H) | IC50 [34] | IC50 (COLO357) | IC50 [36] | IC50 (A549)
< 1000 nM: IC50 (OE33) | IC50 (COLO 205) | IC50 [9] | IC50 (SET-2) | IC50 [16] | IC50 (Huh-7) | IC50 (SW-620 [22]) | IC50 (MV4-11 [23]) | IC50 (RS4-11) | IC50 [30] | IC50 (MOLM-14 [35])
Non-Toxic: Activity [21] | Activity [28]
active: Activity (MOLM-14 [3]) | Activity (MV4-11 [4]) | Activity (MV4-11 [5]) Dose-Dependent Effect | Activity (MV4-11 [6]) Dose-Dependent Effect | Activity (MOLM-14 [7]) | Activity (MOLM-14 [8]) | Activity (MV4-11 [10]) Dose-Dependent Effect | Activity (MOLM-14 [11]) | Activity (MOLM-14 [12]) | Activity (MV4-11 [13]) | Activity (MV4-11 [14]) | Activity (MV4-11 [15]) Dose-Dependent Effect | Activity (MV4-11 [19]) Dose-Dependent Effect | Activity (MOLM-14 [20]) | Activity (MOLM-14 [24]) | Activity (MV4-11 [25]) | Activity (MV4-11 [26]) | Activity (MV4-11 [27]) | Activity (MOLM-14 [29]) Dose-Dependent Effect | Activity (MV4-11 [31]) Dose-Dependent Effect | Activity (MOLM-14 [32]) | Activity (MOLM-14 [33])

N#Cc1cc2cc(C(=O)O)ccc2c2cnccc12
< 300 nM: IC50 [1]
